One experiment addresses T1, RXRγ (Mus musculus, UniProt P28705).
T1 construct: expressed in transfected cells
T1 sequence (P28705 1-463): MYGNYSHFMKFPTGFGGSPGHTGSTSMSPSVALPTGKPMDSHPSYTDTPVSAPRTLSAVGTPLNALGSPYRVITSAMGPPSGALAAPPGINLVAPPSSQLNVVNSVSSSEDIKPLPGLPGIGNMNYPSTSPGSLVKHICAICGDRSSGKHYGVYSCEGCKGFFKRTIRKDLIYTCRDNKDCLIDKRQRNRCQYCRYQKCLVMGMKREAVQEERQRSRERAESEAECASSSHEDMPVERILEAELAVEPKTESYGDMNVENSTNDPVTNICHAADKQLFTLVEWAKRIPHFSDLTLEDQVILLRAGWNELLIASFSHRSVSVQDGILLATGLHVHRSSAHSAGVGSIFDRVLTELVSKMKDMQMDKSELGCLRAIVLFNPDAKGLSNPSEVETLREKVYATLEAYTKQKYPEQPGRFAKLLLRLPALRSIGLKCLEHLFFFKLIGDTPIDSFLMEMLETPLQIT
The experiment is described as follows: holoreceptor transactivation assay, RXRγ. Type of experiment: cell-based. Conditions: for EC50: holoreceptor assay, read-out: RXR Trans EC50 γ; for Emax: relative to 10^-6 M cyclopropyl penta-2,4-dienoic acid reference, read-out: % efficacy, RXRγ transactivation. The source says:
(§1) Other assays described below, measure the ability of the compounds of the present invention to bind to, and/or activate various retinoid receptor subtypes. When in these assays a compound binds to a given receptor subtype and activates the transcription of a reporter gene through that subtype, then the compound is considered an agonist of that receptor subtype. […] In the below described assays the ability of the compounds to bind to RARα, RARβ, RARγ, RXRα, RXRβ and RXRγ receptors, and the ability or inability of the compounds to activate transcription of a reporter gene through these receptor subtypes can be tested. […] However, some of the compounds of the invention may behave as retinoid antagonists or partial antagonists and/or as inverse agonists. Because of the complex distribution of the different retinoid receptors in various organs of the mammalian body partial agonists and partial antagonists and compounds which have the characteristics of both may lend themselves to particularly useful therapeutic applications and may avoid serious side effects of conventional retinoid drugs.
(§2) A holoreceptor transactivation assay and a ligand binding assay which measure the antagonist/agonist like activity of the compounds of the invention, or their ability to bind to the several retinoid receptor subtypes, respectively, are described in published PCT Application No. WO WO93/11755 (particularly on pages 30-33 and 37-41) published on Jun. 24, 1993, the specification of which is also incorporated herein by reference. A detailed experimental procedure for holoreceptor transactivations has been described by Heyman et al. Cell 68, 397-406, (1992); Allegretto et al. J. Biol. Chem. 268, 26625-26633, and Mangelsdorf et al. The Retinoids: Biology, Chemistry and Medicine, pp 319-349, Raven Press Ltd., New York, which are expressly incorporated herein by reference. The results obtained in this assay are expressed in EC50 numbers, as they are also in the chimeric receptor transactivation assay. The results of ligand binding assay are expressed in Kd numbers. (See Cheng et al. Biochemical Pharmacology Vol. 22 pp 3099-3108, expressly incorporated herein by reference.)
(§3) Table 1 discloses the activity of certain exemplary compounds of the invention in the above-described chimeric receptor transactivation assay, holoreceptor transactivation assay and a ligand binding assays. Particularly, the transactivation data pertaining to RAR receptors were obtained in the chimeric assay, and the data pertaining to transactivation of RXR receptors were obtained in the holoreceptor transactivation assay.

The next experiment has as its target T2, RARα (Homo sapiens, UniProt P10276).
T2 sequence (P10276 1-462): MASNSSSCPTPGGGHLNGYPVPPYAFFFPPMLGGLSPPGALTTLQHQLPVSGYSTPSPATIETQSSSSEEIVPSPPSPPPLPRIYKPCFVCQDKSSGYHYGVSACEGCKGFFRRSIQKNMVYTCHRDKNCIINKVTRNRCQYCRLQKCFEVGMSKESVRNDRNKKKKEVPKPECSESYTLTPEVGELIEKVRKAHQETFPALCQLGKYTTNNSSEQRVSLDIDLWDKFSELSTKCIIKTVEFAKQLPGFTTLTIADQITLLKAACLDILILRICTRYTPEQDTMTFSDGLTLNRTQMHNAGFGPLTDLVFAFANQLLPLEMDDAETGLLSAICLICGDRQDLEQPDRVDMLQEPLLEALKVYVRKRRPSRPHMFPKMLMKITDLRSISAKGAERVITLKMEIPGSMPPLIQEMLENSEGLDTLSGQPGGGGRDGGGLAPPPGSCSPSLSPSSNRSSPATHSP
The experiment is described as follows: ligand binding assay, RARα. Conditions: read-out: RAR Bind Ki α.
From the text: as §1, §2, §3

A further experiment concerns the target T3, RXRα (Homo sapiens, UniProt P19793).
T3 construct: expressed in transfected cells
T3 sequence (P19793 1-462): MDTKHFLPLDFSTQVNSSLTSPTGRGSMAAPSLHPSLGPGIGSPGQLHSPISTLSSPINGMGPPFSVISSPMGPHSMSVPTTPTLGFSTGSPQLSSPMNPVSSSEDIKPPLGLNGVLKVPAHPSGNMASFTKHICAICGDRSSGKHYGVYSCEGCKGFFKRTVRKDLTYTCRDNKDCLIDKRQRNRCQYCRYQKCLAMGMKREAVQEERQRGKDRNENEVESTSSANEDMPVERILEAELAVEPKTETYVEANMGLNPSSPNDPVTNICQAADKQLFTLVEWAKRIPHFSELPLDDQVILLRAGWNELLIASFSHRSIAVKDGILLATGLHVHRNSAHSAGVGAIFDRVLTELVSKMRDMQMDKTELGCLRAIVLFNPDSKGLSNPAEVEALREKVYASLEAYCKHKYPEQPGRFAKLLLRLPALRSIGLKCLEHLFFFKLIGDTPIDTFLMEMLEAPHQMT
The experiment in a line: holoreceptor transactivation assay, RXRα. Particulars: for EC50: holoreceptor assay, read-out: RXR Trans EC50 α; for Emax: relative to 10^-6 M cyclopropyl penta-2,4-dienoic acid reference, read-out: % efficacy, RXRα transactivation. The class given is cell-based.
From the text: as §1, §2, §3

The target in another experiment is T4, RXRβ (Homo sapiens, UniProt P28702).
T4 sequence (P28702 1-533): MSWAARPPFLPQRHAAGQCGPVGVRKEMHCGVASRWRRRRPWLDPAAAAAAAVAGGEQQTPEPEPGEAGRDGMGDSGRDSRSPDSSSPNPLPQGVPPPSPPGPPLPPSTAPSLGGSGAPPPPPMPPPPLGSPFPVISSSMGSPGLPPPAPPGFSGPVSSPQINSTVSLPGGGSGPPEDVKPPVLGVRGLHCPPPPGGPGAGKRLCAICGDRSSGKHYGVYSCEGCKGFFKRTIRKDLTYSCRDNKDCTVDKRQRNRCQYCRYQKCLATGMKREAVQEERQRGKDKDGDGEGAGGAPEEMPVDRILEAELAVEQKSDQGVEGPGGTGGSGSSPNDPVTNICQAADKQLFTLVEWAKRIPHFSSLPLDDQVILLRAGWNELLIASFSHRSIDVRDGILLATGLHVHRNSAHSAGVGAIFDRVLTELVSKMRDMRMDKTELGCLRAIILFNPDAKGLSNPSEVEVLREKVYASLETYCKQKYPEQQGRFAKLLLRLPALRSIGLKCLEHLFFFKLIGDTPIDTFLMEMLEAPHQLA
The experiment in a line: ligand binding assay, RXRβ. Conditions: read-out: RXR Bind Ki β.
From the text: as §1, §2, §3

Usually EC50 stands for the concentration needed to bring the measured effect to its halfway point. What is called Ki is the equilibrium dissociation constant of an inhibitor or competing ligand from its target.

As for `CCN(c1ccc(C(=O)O)cc1)c1cc2c(cc1C)C(C)(C)CCN2C(C)C` [Compound 52, 4-[-(1-Isopropyl-4,4,6-trimethyl-1,2,3,4-tetrahydro-quinolin-7-yl)ethylamino]-benzoic acid], the EC50 came to 0.5 nM on RXRγ and 0.2 nM at RXRα. Besides, the Emax at RXRγ is 96%; on RXRα, 94%. For the same compound, the figures for the Ki on RARα and at RXRβ were 9600 nM and 99 nM, respectively.
In the case of `CCN(c1ccc(C(=O)O)cc1)c1cc2c(cc1C)N(C(C)C)CCC2(C)C` [Compound 24, 4-[(1-Isopropyl-4,4,7-trimethyl-1,2,3,4-tetrahydroquinolin-6-yl)ethylamino]benzoic acid], the EC50 on RXRγ is 69 nM; on RXRα, 36 nM. The Emax at RXRγ stood at 117%; on RXRα it was 90%. Further, the Ki is > 10000 nM on RARα and 1100 nM at RXRβ.
As to `Cc1cc2c(cc1N(C)c1ccc(C(=O)O)cc1)N(C(C)C)CCC2(C)C` [Compound 51, 4-[(1-Isopropyl-4,4,6-trimethyl-1,2,3,4-tetrahydro-quinolin-7-yl)-methyl-amino]-benzoic acid], the results for the EC50 at RXRγ and on RXRα were 47 nM and 32 nM, respectively. For the same compound, the Emax came to 104% on RXRγ and 92% at RXRα. Also, the Ki is > 10000 nM on RARα and 142 nM at RXRβ.
Turning to `Cc1cc2c(cc1N(C)c1ccc(C(=O)O)cc1)C(C)(C)CCN2C(C)C` [Compound 22, 4-[(1-Isopropyl-4,4,7-trimethyl-1,2,3,4-tetrahydroquinolin-6-yl)methylamino]benzoic acid], the EC50 on RXRγ and at RXRα was 1000 nM throughout. Further, the Emax at RXRγ came to 100%; on RXRα, 80%. In addition, the Ki at RARα is > 10000 nM; at RXRβ, 1100 nM.
With `CC(C)CCN(c1ccc(C(=O)O)cc1)c1ccc2c(c1)C(C)(C)CCN2C(C)C` [Compound 14, 4-[(1-Isopropyl-4,4-dimethyl-1,2,3,4-tetrahydroquinolin-6-yl)(3-methylbutyl)amino]-benzoic Acid], the Ki came to 340 nM on RARα and 778 nM on RXRβ.
For `Cc1cc2c(cc1Nc1ccc(C(=O)O)cc1)N(C(C)C)CCC2(C)C` [Compound 50, 4-(1-Isopropyl-4,4,6-trimethyl-1,2,3,4-tetrahydro-quinolin-7-ylamino)-benzoic acid], the EC50 at RXRγ and on RXRα was 4 nM throughout. Besides, the Emax on RXRγ amounted to 102%; at RXRα it was 103%. In addition, the Ki at RARα is > 10000 nM; on RXRβ, 262 nM.
With `CCCN(c1ccc(C(=O)O)cc1)c1cc2c(cc1C)C(C)(C)CCN2C(C)C` [Compound 53, 4-[(1-Isopropyl-4,4,6-trimethyl-1,2,3,4-tetrahydro-quinolin-7-yl)-propyl-amino]-benzoic acid], the concentration giving a half-maximal response (EC50) was 0.3 nM at RXRγ and 0.2 nM on RXRα. The values for the Emax on RXRγ and at RXRα were 96% and 92%, respectively. The Ki on RARα is 3010 nM; on RXRβ, 43 nM.
Regarding `CC(C)N1CCC(C)(C)c2ccc(N(CC3CC3)c3ccc(C(=O)O)cc3)cc21` [Compound 40, 4-[(1-Isolpropyl-4,4-dimethyl-1,2,3,4-tetrahydroquinolin-7-yl)(cylopropylmethyl)amino]benzoic acid], the EC50 on RXRγ came to 0.2 nM; at RXRα it was 0.1 nM. In addition, the Emax at RXRγ is 105%; at RXRα it was 110%. Besides, the Ki on RARα came out at 5100 nM; at RXRβ it was 42 nM.
In the case of `CC(C)N1CCC(C)(C)c2cc(N(C)c3ccc(C(=O)O)cc3)ccc21` [Compound 10, 4-[(1-Isopropyl-4,4-dimethyl-1,2,3,4-tetrahydroquinolin-6-yl)methylamino]benzoic Acid], the 50% effective concentration (EC50) at RXRγ and at RXRα was 1000 nM throughout. Also, the Emax worked out at 50% on RXRγ and 70% at RXRα. The Ki on RARα is > 10000 nM; at RXRβ it was > 1000 nM.
With `CCN(c1ccc(C(=O)O)cc1)c1ccc2c(c1)N(C(C)C)CCC2(C)C` [Compound 38, 4-[(1-Isopropyl-4,4-dimethyl-1,2,3,4-tetrahydroquinolin-7-yl)ethylamino]benzoic acid], the values for the EC50 at RXRγ and at RXRα were 1 nM and 0.6 nM, respectively. Besides, the Emax at RXRγ came out at 109%; at RXRα, 114%. In addition, the Ki at RARα is > 10000 nM; on RXRβ it was 57 nM.
Consider `CCN(c1ccc(C(=O)O)cc1)c1ccc2c(c1)C(C)(C)CC(=O)N2C(C)C` [Compound 6, 4-[(1-Isopropyl-4,4-dimethyl-2-oxo-1,2,3,4-tetrahydroquinolin-6-yl)ethylamino]benzoic Acid], for which the Ki on RARα is 10000 nM. Also, on RXRα, the EC50 is 1000 nM and the Emax came out at 50%.
`Cc1cc2c(cc1N(CC1CC1)c1ccc(C(=O)O)cc1)C(C)(C)CCN2C(C)C` [Compound 26, 4-[(1-Isopropyl-4,4,7-trimethyl-1,2,3,4-tetrahydro-quinolin-6-yl)(cyclopropylmethyl)amino]benzoic acid]: the EC50 was 1000 nM at RXRγ and > 1000 nM on RXRα. Besides, the Emax on RXRγ worked out at 75%; on RXRα, 25%. For the same compound, the values for the Ki on RARα and at RXRβ were 15000 nM and 386 nM, respectively.

The record behind these values is patent US6127382A, “Amines substituted with a tetrahydroquinolinyl group an aryl or heteroaryl group and an alkyl group, having retinoid-like biological activity” (Allergan Sales, Inc., priority 1999, dated 2000).
